According to US5712160A, “Method of stimulating growth using neurotrophic peptides” (Board of Regents, The University of Texas System, priority 1995, dated 1998):
“And” between values parts separate entries of the source, which are not always exact repeats. Equal entries are not always repeated. “Also recorded” adds a separate entry of the source. Residues, ends and D or L forms follow the SMILES beside them. No end group written: not given here.

Experiments:
PC12 cells = type: cell-based, rat
Procedure: Cell Culture. Stock cultures of PC12 cells are maintained in a medium consisting of RPMI 1640 supplemented with (v/v) 5% fetal calf serum and 5% horse serum ("complete medium"). At alternate feedings, media containing 1% PSN antibiotic mixture is used, consisting of 5 mg penicillin +5 mg streptomycin +10 mg neomycin/ml. Cells are grown in a humidified atmosphere containing 5% CO2. Cells are split once weekly in a 1:12 ratio by vigorous shaking and trituration. For experiments, PC12 cells are dislodged by shaking, centrifuged at 800×g, diluted in Puck's saline, counted in a hemocytometer, and plated on poly-D-lysine coated polystyrene tissue culture pates. For experiments to be performed in defined, serum-free medium, a modification of the N1 medium of Bottenstein et al. is used consisting of RPMI 1640 supplemented with insulin 5 ug/ml, transferrin 5 ug/ml, 20 nM progesterone, 100 μM putrescine, and 30 nM sodium selenite. Cells are plated in complete medium and allowed to attach overnight before washing twice with serum-free RPMI and addition of N1 medium. For experiments. examining effects of NGF on cell survival following serum deprivation, cells are plated in complete medium and allowed to attach overnight. Cells are then washed once with RPMI containing sheep anti-mouse beta-NGF to remove any residual NGF from serum. After washing once in RPMI, cells receive varying doses of NGF in RPMI. Media is changed on the third day of serum deprivation. On the fourth day, viability is assessed by ^35 S-methionine incorporation into trichloroacetic acid precipitable proteins. The effects of NGF on the response of PC12 cells to peptides is also examined by reduction of the dye 3, (4,5-dimethylthiazol-2-yl)-2,5-diphenyl-tetrazolium (MTT). For experiments using MTT, cells (1×10^4) are plated on poly-D-lysine coated 6 mm wells (96 well plates). Cells are allowed to attach overnight before addition of NGF and/or peptide. After 24 hr, media is removed and replaced with RPMI 1640 medium without serum. Following a 24 hour recovery period, each well is incubated with MTT for 4 hours at 37° C. Formaxan crystals are then solubilized in isopropanol containing 0.04N HCl and plates read on an ELISA reader using test and reference wavelengths of 570 and 630 nm, respectively. All statistics are performed by computer-assisted methods using the Number Cruncher for Statistical Sciences (NCSS) package. […]
The survival of PC12 cells was measured as a function of the amount of peptide P4.
Cells were plated out as mentioned above in RPMI 1640 without serum but in the presence of a fixed amount of NGF with varying amounts of peptide from 0.1 to 100 ug/ml (day one). […] The incorporation of ^35 S-Met into protein was determined by TCA precipitation and protein assay.

labelled NGF = labelled NGF (Homo sapiens, UniProt P01138); assay: Binding of labelled NGF to peptide fixed on a membrane disc/filter
Sequence of labelled NGF (P01138 122-241): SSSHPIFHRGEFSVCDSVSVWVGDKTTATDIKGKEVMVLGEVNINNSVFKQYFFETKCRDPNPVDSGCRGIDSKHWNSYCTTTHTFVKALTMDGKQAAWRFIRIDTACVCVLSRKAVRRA
Procedure: Membrane discs were placed into wells of 96 well plate. Peptide (for example 265 ng/ul) was spotted on each disc. Series dilutions of peptide were used to assure the binding. The disc was dried at 37° C. (or 40° C.) for 1 hour. […] 4% BSA TBS was added to each well. An amount of labelled NGF was added to each well, followed by incubation in 4% BSA TBS. Each disc was washed 4 times with 200 ul TBS (5 minute interval). The discs were transferred to counting vial and counted.
Peptide P4 was attached to a solid matrix at various concentrations and the binding of labeled NGF measured to these various concentrations of bound P4. It is noted that an apparent maximal binding was achieved when about 3 μg of peptide P4 were bound. FIG. 4 illustrates how differing amounts of peptide bound differing amounts of labelled NGF. Here the peptide is fixed to a filter in varying amounts, then exposed to constant amounts of labelled NGF and washed extensively to displace unspecifically bound radioactivity. […] The specific augmentation of NGF effects may thus be understood when small amounts of peptide are added.

[1] = test system: PC12 cells transplanted into rat cortex; assay: Transplant of pretreated PC12 cells into lesioned rat brain, NGF receptor immunohistochemistry (Ig192); type: in vivo; conditions: cells treated in vitro two weeks; rat cortex stab wound; two weeks after transplant
Procedure: PC12 cells were treated with nerve growth factor (NGF) or peptide P4 in vitro for two weeks. The cells were then transplanted into a rat cortex at the site of the stab wound or 6-hydroxy dopamine-induced lesion. Two weeks after the transplant of the P12 cells, the animal brain was processed for immunohistochemistry by staining with monoclonal antibody to NGF receptor (Ig192). […] The stab-wound lesions carried out by inserting a 24 gauge needle into a stereotoxicly fixed animal so as to lesion motor cortex. Cells were then deposited with the same needle into the wound cavity.
The 6-hydroxydopamine lesions were carried out by injecting […] stereotoxicly into striatum with a needle two weeks prior to transplantation and/or treatment of animals.

[2] = test system: NGF receptor on PC12 cells
Procedure: Competitive binding assay. The following method of binding assay was carried out: precoat the 24-well plates were precoated with cytochrome C and the PC12 cells plated overnight as mentioned above. The ^125 I labeled NGF was added at 5 ng/ml in the presence of different doses of peptide from 4 ug/ml to 50 ug/ml. […] These peptides are very acidic and NGF is very basic.
In another experiment 24-well plates were precoated with poly-D-Lys at 0.06 mg/ml for 15 minutes and PC12 cells plated overnight at 1×10^5 cells/well in RPMI 1640 with serum conditioned media. The ^125 I-NGF was added at, e.g., 5 ng/ml, in the presence of varying amounts of peptide from 0.01 ug/ml to 50 ug/ml in Hepes buffer with 1 mg/ml BSA. The cells were incubated at rt. for 1 hour then washed with PBS three times and lysed with 0.5N NaOH. The radioactivity was then measured. Protein concentrations of the aliquots were determined by Lowry assay.

NGFR-I = conditions: high affinity, low capacity binding site; read-out: equilibrium dissociation constant (Kd) of NGF binding; cited from earlier work
NGFR-II = target: T1, NGFR-II (Homo sapiens, UniProt P08138); conditions: low affinity, high capacity binding site; read-out: equilibrium dissociation constant (Kd) of NGF binding; cited from earlier work
T1 sequence (P08138 29-427): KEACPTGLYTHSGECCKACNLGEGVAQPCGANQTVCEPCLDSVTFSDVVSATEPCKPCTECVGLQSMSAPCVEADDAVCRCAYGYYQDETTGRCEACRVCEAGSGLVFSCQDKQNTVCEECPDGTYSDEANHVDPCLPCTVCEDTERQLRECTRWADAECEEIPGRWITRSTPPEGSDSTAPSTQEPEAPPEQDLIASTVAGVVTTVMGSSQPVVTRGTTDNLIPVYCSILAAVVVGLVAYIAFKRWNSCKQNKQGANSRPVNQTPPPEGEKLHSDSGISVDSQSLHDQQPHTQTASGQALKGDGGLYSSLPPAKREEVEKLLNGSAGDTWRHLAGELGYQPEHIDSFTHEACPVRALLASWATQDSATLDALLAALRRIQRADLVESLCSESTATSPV

## CC(C)[C@H](NC(=O)[C@@H](NC(=O)[C@H](CC(N)=O)NC(=O)[C@H](CCC(N)=O)NC(=O)[C@H](CCCCN)NC(=O)[C@H](CC(=O)O)NC(=O)[C@H](CCC(N)=O)NC(=O)[C@@H](N)CS)[C@@H](C)O)C(=O)N[C@@H](CS)C(=O)N[C@@H](CCC(=O)O)C(=O)N[C@@H](CCC(=O)O)C(=O)N[C@@H](CS)C(=O)N1CCC[C@H]1C(=O)N[C@@H](CCC(=O)O)C(=O)O [P4, Cys--Gln--Asp--Lys--Gln--Asn--Thr--Val--Cys--Glu--Glu--Cys--Pro--Glu--OH] (H-CQDKQNTVCEECPE-OH; N-terminus assumed)
PC12 cells; NGF concentrations of 0.1 to 10 ng/ml
  PC12 cell protein synthesis activity (FIG. 6B): trophic effects
PC12 cells; in the presence of 2 ng/ml NGF
  peptide concentration at maximal PC12 cell survival (FIG. 3): 5 µg
PC12 cells; peptide 0.1 ug/ml, serum-free, fixed amount of NGF, day four
  increase in protein synthesized (35S-Met incorporation): 20%
Labelled NGF; peptide fixed to filter, constant amount of labelled NGF
  amount of bound peptide at apparent maximal binding of labeled NGF (FIG. 4): about 3 μg
Labelled NGF; varying amounts of peptide on filter, washed extensively
  binding of labelled NGF to fixed peptide: saturation indicative of specific binding of NGF to peptide
[1]
  NGF receptor immunostaining of transplanted PC12 cells (FIG. 8B vs 8A): significantly greater NGF receptor; also recorded: denser accumulation of NGF receptor sites
[2]; lower peptide concentrations measured (1.3 μg)
  binding of labeled NGF to PC12 cells (FIG. 5): amplified
[2]; peptide at concentrations higher than about 1.5 μg
  displacement of bound labeled NGF from PC12 cells (FIG. 5): effective in displacing bound labeled NGF
[2]; peptide within 0.01-0.1 ug/ml range, 125I-NGF 5 ng/ml, PC12 cells, 1 hour rt
  increase in binding of 125I-NGF to its receptor: 50%

## NGF: Nerve growth factor, a neurotrophic protein; only the β-NGF subunit has nerve growth promoting activity
NGFR-I
  Kd: ~0.01 nM and 0.01 nM
NGFR-II
  Kd: ~1 nM and 1 nM
[2]; 10 micrograms unlabeled NGF or peptide, various concentrations of free labeled NGF
  displacement of labeled NGF from PC12 cells (FIG. 1): more effective in displacing labeled NGF than most of the synthetic peptides

## Tyr--Cys--Gln--Asp--Lys--Gln--Asn--Thr--Val--Cys--Glu--Glu--Cys--Pro--Glu--OH (YCQDKQNTVCEECPE-OH; cysteine pairing not given here) [P5]
PC12 cells; in the presence of 0.5 ng/ml NGF
  PC12 cell survival during serum deprivation (FIG. 6): enhancement of cell survival
